Like-named read-outs stand apart in the source and are kept apart here.
What was measured:
[1] = test system: T3SS-mediated cytotoxicity of translocated effector protein ExoU in CHO cells; assay: Inhibition of P. aeruginosa ExoU-dependent CHO cell killing (translocation, LDH release); assay type: cell-based; conditions: Pseudomonas aeruginosa, read-out: Avg. Translocation IC50
From the text: Inhibition of P. aeruginosa ExoU-Dependent CHO Cell Killing.
Pseudolipasin, which acts by direct inhibition of the ExoU phospholipase, was used as control inhibitor (Lee, et al, 2007, Infect. Immun., 75:1089-98).

[2] = Determination of mammalian cytotoxicity (MTS); assay type: cell-based; conditions: human
Description: Determination of Mammalian Cytotoxicity.
See, Marshall, et al., 1995, A critical assessment of the use of microculture tetrazolium assays to measure cell growth and function, Growth Regul., 5:69-84. Briefly, 96-well plates were seeded with HeLa cells at a density of 4×10^3 per well in VP-SFM medium without serum (Frazzati-Gallina, et al., 2001, J. Biotechnol., 92:67-72), in the presence or absence of serial dilutions of a compound dissolved in DMSO. Following incubation for 3 days at 37° C. in VP-SFM, cell viability was measured with the vital tetrazolium salt stain 3-(4,5-dimethylthiazol-2-yl)-2,5 diphenyltetrazolium bromide according to the manufacturer's instructions (Promega, Madison, Wis.). Values were determined in duplicate using dilutions of inhibitory compound from 100 μM to 0.2 μM.

[3] = test system: T3SS-mediated secretion of ExoS′-βLA fusion protein, P. aeruginosa strain MDM973; assay: Effector-β-lactamase (ExoS′-βLA) secretion assay; assay type: cell-based, Pseudomonas aeruginosa; conditions: for IC50: Pseudomonas aeruginosa, read-out: Avg. Secretion IC50
From the text: Effector-β-Lactamase (βLA) Secretion Assays.
P. aeruginosa. A gene encoding an ExoS'-β-lactamase (βLA) fusion protein (comprised of 234 codons of P. aeruginosa effector ExoS fused to the TEM-1 β-lactamase gene lacking secretion signal codons) was constructed by splicing by overlap extension PCR (SOE-PCR) (Choi and Schweizer, 2005, BMC Microbiol., 5:30) using primers 5-10 (Table 3, above), sequence confirmed, cloned into lacI^Q-containing GATEWAY® vector pUCP24GW (see Moir, et al., 2007, J Biomol. Screen., 12:855-64) behind the lac promoter, and introduced into P. aeruginosa by electroporation (see Choi, et al., 2006, J. Microbiol. Methods, 64:391-7). Secretion of fusion proteins was detected by measuring the hydrolysis of the chromogenic β-lactamase substrate nitrocefin in clear 96-well microplates in a modification of a previously described assay (Lee, et al., 2007, Infect. Immun., 75:1089-98). Cells of strain MDM973 (PAK/pUCP24GW-exoS:blaM) were sub-cultured in the morning from overnight growths in LBG into 0.1 ml of LBGIE with or without test compounds and grown for 150 min. Nitrocefin (100 μg/ml final) was added, and A490 measurements taken every minute for 15 min in a Victor^3V 1420 Multilabel HTS Counter (PerkinElmer). Slopes were calculated as a relative measure of the quantity of the effector-βLA fusion protein secreted and were absolutely dependent on induction with IPTG, EGTA, and the presence of a functional pscC gene in the P. aeruginosa cells. Typical signal:background ratios were 6-10.

[4] = Table 4, HeLa cells, 3 days, dilutions from 100 μM to 0.2 μM, read-out: Avg. CC50

Structure (SMILES): CC(Oc1ccc(Cl)cc1Cl)C(=O)NCc1ccccc1 (stereo not shown) [MBX-1939]
- IC50 [1]: 7.5 µM
- CC50 at 3 days [2, 4]: 54 µM
- melting point: 121 °C

Structure (SMILES): CC(Oc1ccc(Cl)cc1Cl)C(=O)NC1CCCc2cc(F)ccc21 (stereo not shown) [MBX-2601]
- IC50 [3]: 35 µM
- CC50 at 3 days [2]: 40 µM
- melting point: 82 °C

Structure (SMILES): CC(Oc1ccc(Cl)cc1Cl)C(=O)NCc1ccc(F)cn1 (stereo not shown) [MBX-2623]
- IC50 [3]: 21 µM
- CC50 at 3 days [2, 4]: 70 µM
- melting point: 78 °C

Structure (SMILES): CC(Oc1ccc(Cl)cc1Cl)C(=O)NC(C)(C)c1ccc2c(c1)OCO2 (stereo not shown) [MBX-2220]
- IC50 [3]: 2.9 µM
- IC50 values lower (T3SS secretion inhibition) ([3]; vs. MBX-1641): 29%
- IC50 [1]: 15 µM
- CC50 at 3 days [2, 4]: 64 µM
- melting point: 105 °C

Structure (SMILES): CC(Oc1ccc(Cl)cc1Cl)C(=O)NCc1ccccc1F (stereo not shown) [MBX-1962]
- IC50 [1]: 8.2 µM
- CC50 at 3 days [2, 4]: 32 µM
- melting point: 121 °C

Structure (SMILES): CC(Oc1ccc(Cl)cc1Cl)C(=O)NCc1cc2ccccc2[nH]1 (stereo not shown) [MBX-2624]
- IC50 [1]: 16 µM
- CC50 at 3 days [2, 4]: 9 µM

Structure (SMILES): CC(Nc1ccc(Cl)cc1Cl)C(=O)NCc1ccc2c(c1)OCO2 (stereo not shown) [MBX-2212]
- IC50 [3]: 9.6 µM
- effect of structural alteration on T3SS-mediated secretion inhibition ([3]; vs. MBX-1641): adverse effect
- IC50 [1]: 35.3 µM
- CC50 at 3 days [2]: 80 µM

Structure (SMILES): CCCC(NC(=O)C(C)Oc1ccc(Cl)cc1Cl)c1ccc(F)cc1 (stereo not shown) [MBX-2628]
- IC50 [3]: 4.3 µM
- CC50 at 3 days [2, 4]: 14 µM
- melting point: 79 °C

Structure (SMILES): CC(Oc1ccc(Cl)cc1Cl)C(=O)NCc1ccc2[nH]cnc2c1 (stereo not shown) [MBX-2593]
- IC50 [3]: 7 µM
- IC50 [1]: 33 µM
- CC50 at 3 days [2]: > 100 µM
- melting point: 71 °C

Structure (SMILES): CC(Oc1ccc(Cl)cc1Cl)C(=O)NCc1ccc(Cl)cc1 (stereo not shown) [MBX-1958]
- IC50 [1]: 9.6 µM
- CC50 at 3 days [2, 4]: 42 µM
- melting point: 115 °C

Structure (SMILES): CC(Oc1ccc(Cl)cc1Cl)C(=O)NC(c1ccc(F)cc1)C(C)C (stereo not shown) [MBX-2617]
- IC50 [3]: 2.1 µM
- CC50 at 3 days [2, 4]: 9 µM
- melting point: 107 °C

Structure (SMILES): CC(Oc1ccc(Cl)cc1Cl)C(=O)NCc1ccc2cc[nH]c2c1 (stereo not shown) [MBX-2594]
- IC50 [3]: 1.6 µM
- IC50 [1]: 5.3 µM
- CC50 at 3 days [2, 4]: 10.4 µM
- melting point: 120 °C

Structure (SMILES): CC(Oc1ccc(Cl)cc1Cl)C(=O)NCc1cccc(Cl)c1 (stereo not shown) [MBX-1957]
- IC50 [1]: 5.4 µM
- CC50 at 3 days [2, 4]: 72 µM
- melting point: 140 °C

Structure (SMILES): Cc1cccc(CNC(=O)C(C)Oc2ccc(Cl)cc2Cl)c1 (stereo not shown) [MBX-1952]
- IC50 [1]: 8 µM
- CC50 at 3 days [2, 4]: 32 µM
- melting point: 113 °C

Structure (SMILES): CC(Oc1ccc(Cl)cc1Cl)C(=O)NCc1cccc(F)c1 (stereo not shown) [MBX-1963]
- IC50 [1]: 4.9 µM
- CC50 at 3 days [2, 4]: 59 µM
- melting point: 106 °C

Structure (SMILES): COc1cccc(OC)c1CNC(=O)C(C)Oc1ccc(Cl)cc1Cl (stereo not shown) [MBX-1950]
- IC50 [3]: 53.3 µM
- IC50 [1]: 5 µM
- CC50 at 3 days [2, 4]: 22 µM
- melting point: 122 °C

Structure (SMILES): COc1ccc(OC)c(CNC(=O)C(C)Oc2ccc(Cl)cc2Cl)c1 (stereo not shown) [MBX-1947]
- IC50 [3]: 34.8 µM
- IC50 [1]: > 100 µM
- melting point: 67 °C

Structure (SMILES): CC(Oc1ccc(Cl)cc1Cl)C(=O)NC1(c2ccc(F)cc2)CC1 (stereo not shown) [MBX-2666]
- IC50 [3]: 5.3 µM
- CC50 at 3 days [2, 4]: 100 µM
- melting point: 134 °C

Structure (SMILES): COc1ccc(CNC(=O)C(C)Oc2ccc(F)cc2Cl)cc1 (stereo not shown) [MBX-2028]
- IC50 [3]: 75.3 µM
- IC50 [1]: > 100 µM
- melting point: 97 °C

Structure (SMILES): CC(Oc1ccc(Cl)cc1Cl)C(=O)NCc1ccc2c(c1)n(C)c(=O)n2C (stereo not shown) [MBX-1996]
- IC50 [3]: 25.5 µM
- IC50 [1]: > 100 µM
- melting point: 180 °C

Structure (SMILES): COc1cc(OC)c(OC)cc1CNC(=O)C(C)Oc1ccc(Cl)cc1Cl (stereo not shown) [MBX-2030]
- IC50 [3]: 74.5 µM
- IC50 [1]: > 100 µM
- melting point: 142 °C

Structure (SMILES): CC(Oc1ccc(Cl)cc1Cl)C(=O)NCc1ccccc1N(C)C (stereo not shown) [MBX-1959]
- IC50 [3]: 18.6 µM
- IC50 [1]: 60 µM
- melting point: 85 °C

Structure (SMILES): CCC(NC(=O)C(C)Oc1ccc(Cl)cc1Cl)c1ccc(F)cc1 (stereo not shown) [MBX-2608]
- CC50 at 3 days [2, 4]: 11 µM
- melting point: 95 °C

Structure (SMILES): CC(Oc1ccc(Cl)cc1Cl)C(=O)NCc1cccc(N(C)C)c1 (stereo not shown) [MBX-1960]
- IC50 [3]: 12.2 µM
- IC50 [1]: 58 µM
- melting point: 108 °C

Structure (SMILES): COc1ccc(CNC(=O)C(C)Oc2ncc(Cl)cc2Cl)cc1OC (stereo not shown) [MBX-2156]
- IC50 [3]: 24 µM
- IC50 [1]: > 100 µM
- melting point: 156 °C

Structure (SMILES): CC(Oc1ccc(Cl)cc1Cl)C(=O)NC(c1ccc(F)cc1)C1CCC1 (stereo not shown) [MBX-2615]
- IC50 [3]: 2.2 µM
- CC50 at 3 days [2, 4]: 26 µM
- melting point: 103 °C

Structure (SMILES): CC(Oc1ccc(Cl)cc1Cl)C(=O)NCc1ccc2[nH]ccc2c1 (stereo not shown) [MBX-2590]
- IC50 [3]: 1.7 µM
- CC50 at 3 days [2]: 25 µM
- melting point: 91 °C

Structure (SMILES): CC1Cc2cc(CNC(=O)C(C)Oc3ccc(Cl)cc3Cl)ccc2O1 (stereo not shown) [MBX-2001]
- IC50 [3]: 14 µM
- IC50 [1]: 84 µM
- melting point: 100 °C

Structure (SMILES): C[C@H](NC(=O)[C@@H](C)Oc1ccc(Cl)cc1Cl)c1ccc(F)cc1 [MBX-2573]
- IC50 [1]: > 100 µM
- CC50 at 3 days [2, 4]: > 100 µM

Structure (SMILES): COc1ccc(CNC(=O)C(C)Oc2ncc(Cl)cc2Cl)cc1 (stereo not shown) [MBX-2157]
- IC50 [3]: 9.9 µM
- IC50 [1]: > 100 µM
- melting point: 135 °C

Structure (SMILES): COc1ccc(CNC(=O)C(C)Sc2ccc(Cl)cc2Cl)cc1OC (stereo not shown) [MBX-2162]
- IC50 [3]: 30.4 µM
- IC50 [1]: > 100 µM
- melting point: 112 °C

Structure (SMILES): CC(Oc1ccc(Cl)cc1Cl)C(=O)NCc1ccc(F)cc1 (stereo not shown) [MBX-1642]
- IC50 [3]: 8 µM
- IC50 [1]: 15 µM
- CC50 at 3 days [2, 4]: 41 µM

Structure (SMILES): CC(Oc1ncc(Cl)cc1Cl)C(=O)NCc1ccc2c(c1)OCO2 (stereo not shown) [MBX-2155]
- CC50 at 3 days [2, 4]: > 100 µM
- melting point: 180 °C

Structure (SMILES): CC(Oc1ccc(Cl)cc1Cl)C(=O)NC(C)c1ccc(F)cc1 (stereo not shown) [MBX-2221]
- IC50 [3]: 4.6 µM
- IC50 values lower (T3SS secretion inhibition) ([3]; vs. MBX-1641): 34%
- CC50 at 3 days [2, 4]: 32 µM

Structure (SMILES): C[C@@H](Oc1ccc(Cl)cc1Cl)C(=O)N[C@H](C)c1ccc(F)cc1 [MBX-2572]
- IC50 [1]: > 100 µM
- CC50 at 3 days [2, 4]: > 100 µM

Structure (SMILES): CCCCC(NC(=O)C(C)Oc1ccc(Cl)cc1Cl)c1ccc(F)cc1 (stereo not shown) [MBX-2629]
- IC50 [3]: 4.7 µM
- CC50 at 3 days [2, 4]: 19 µM
- melting point: 100 °C

Structure (SMILES): CC(Oc1ccc(Cl)cc1Cl)C(=O)NC(C)(C)c1ccc(F)cc1 (stereo not shown) [MBX-2616]
- IC50 [3]: 8 µM
- CC50 at 3 days [2, 4]: 16 µM
- melting point: 105 °C

Structure (SMILES): CC(Oc1ccc(Cl)cc1Cl)C(=O)NCc1ccc(N2CCCC2=O)cc1 (stereo not shown) [MBX-1987]
- IC50 [3]: 18.8 µM
- IC50 [1]: 20 µM
- melting point: 138 °C

Structure (SMILES): CC(Oc1ccc(Cl)cc1Cl)C(=O)NCc1ccc2c(c1)OCCCO2 (stereo not shown) [MBX-1999]
- IC50 [3]: 23.9 µM
- IC50 [1]: > 100 µM
- melting point: 115 °C

Reference: patent publication US20140219995A1, “INHIBITORS OF BACTERIAL TYPE III SECRETION SYSTEM” (priority 2011, published 2014)
